According to ChEMBL document CHEMBL4251653, “In vivo potent BM635 analogue with improved drug-like properties” (Eur J Med Chem, 2018):
≈ marks a conversion by molar mass, not a printed value.

How the values were obtained:
[1] = Lipophilicity, log D of the compound at pH 7.4 by UV-HPLC method; type: physicochemical; details: buffer
[2] = target: Voltage-gated inwardly rectifying potassium channel KCNH2 (Homo sapiens, UniProt Q12809); test: Inhibition of human ERG by [3H]dofetilide binding displacement assay
Chain of Voltage-gated inwardly rectifying potassium channel KCNH2 (Q12809 whole entry): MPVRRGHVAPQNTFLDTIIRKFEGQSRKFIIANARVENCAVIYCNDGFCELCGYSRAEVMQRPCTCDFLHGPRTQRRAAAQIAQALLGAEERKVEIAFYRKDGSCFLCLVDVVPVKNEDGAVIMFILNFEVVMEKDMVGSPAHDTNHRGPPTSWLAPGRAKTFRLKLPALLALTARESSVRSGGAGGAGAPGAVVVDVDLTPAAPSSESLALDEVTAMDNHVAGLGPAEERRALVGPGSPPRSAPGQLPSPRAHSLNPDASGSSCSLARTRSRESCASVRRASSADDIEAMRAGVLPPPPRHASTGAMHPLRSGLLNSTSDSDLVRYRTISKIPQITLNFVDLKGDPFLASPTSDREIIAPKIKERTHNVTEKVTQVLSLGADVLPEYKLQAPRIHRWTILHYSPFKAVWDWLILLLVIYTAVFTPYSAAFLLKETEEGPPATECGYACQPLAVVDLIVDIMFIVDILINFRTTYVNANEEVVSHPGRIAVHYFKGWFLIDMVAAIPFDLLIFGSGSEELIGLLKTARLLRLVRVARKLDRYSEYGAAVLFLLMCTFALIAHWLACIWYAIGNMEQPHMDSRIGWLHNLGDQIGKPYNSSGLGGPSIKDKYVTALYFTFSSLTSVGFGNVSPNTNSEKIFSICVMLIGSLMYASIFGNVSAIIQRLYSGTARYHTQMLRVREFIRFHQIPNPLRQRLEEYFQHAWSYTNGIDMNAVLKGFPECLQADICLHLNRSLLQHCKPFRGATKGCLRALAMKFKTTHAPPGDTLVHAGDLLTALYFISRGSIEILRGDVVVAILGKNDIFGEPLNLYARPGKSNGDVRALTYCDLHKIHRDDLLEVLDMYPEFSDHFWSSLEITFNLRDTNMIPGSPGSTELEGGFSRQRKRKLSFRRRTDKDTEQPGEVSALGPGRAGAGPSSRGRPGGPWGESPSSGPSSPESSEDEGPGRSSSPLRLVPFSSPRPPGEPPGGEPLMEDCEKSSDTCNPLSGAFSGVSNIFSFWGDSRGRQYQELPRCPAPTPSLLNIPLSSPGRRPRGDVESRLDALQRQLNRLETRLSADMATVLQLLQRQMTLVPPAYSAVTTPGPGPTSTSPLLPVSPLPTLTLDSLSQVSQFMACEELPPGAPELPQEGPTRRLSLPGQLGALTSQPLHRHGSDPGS

[3] = Solubility of the compound in FaSSIF at pH 6.5 incubated for 4 hrs by UPLC-MS method; type: physicochemical
[4] = Kinetic solubility in pH 7.4 phosphate buffered saline incubated for 1 hr by chemiluminescent nitrogen detection method; type: physicochemical; details: read-out: Kinetic_solubility
[5] = tested on: Mycobacterium tuberculosis; test: microbe, parasite or virus in culture; details: H37Rv, THP-1, 96 h
Description: Antitubercular activity against Mycobacterium tuberculosis H37Rv infected in human THP1 macrophages incubated for 4 days by luciferase reporter gene assay

[6] = Cytotoxicity against human HepG2 cells incubated for 48 hrs by Cell-titer Glo assay; type: cell-based; details: read-out: TC50
HepG2 [7] = test: Cytotoxicity against human HepG2 cells assessed as compound concentration causing changes in mitochondrial potential by Cell Health assay; type: cell-based
[8] = tested on: Mycobacterium tuberculosis; test: microbe, parasite or virus in culture; details: 144 h
Description: Antitubercular activity against Mycobacterium tuberculosis after 6 days by resazurin-based fluorescence assay

Albumin = Albumin (Homo sapiens, UniProt P02768); test: Binding affinity to human serum albumin; type: ADME; details: isolated protein
Chain of Albumin (P02768 whole entry): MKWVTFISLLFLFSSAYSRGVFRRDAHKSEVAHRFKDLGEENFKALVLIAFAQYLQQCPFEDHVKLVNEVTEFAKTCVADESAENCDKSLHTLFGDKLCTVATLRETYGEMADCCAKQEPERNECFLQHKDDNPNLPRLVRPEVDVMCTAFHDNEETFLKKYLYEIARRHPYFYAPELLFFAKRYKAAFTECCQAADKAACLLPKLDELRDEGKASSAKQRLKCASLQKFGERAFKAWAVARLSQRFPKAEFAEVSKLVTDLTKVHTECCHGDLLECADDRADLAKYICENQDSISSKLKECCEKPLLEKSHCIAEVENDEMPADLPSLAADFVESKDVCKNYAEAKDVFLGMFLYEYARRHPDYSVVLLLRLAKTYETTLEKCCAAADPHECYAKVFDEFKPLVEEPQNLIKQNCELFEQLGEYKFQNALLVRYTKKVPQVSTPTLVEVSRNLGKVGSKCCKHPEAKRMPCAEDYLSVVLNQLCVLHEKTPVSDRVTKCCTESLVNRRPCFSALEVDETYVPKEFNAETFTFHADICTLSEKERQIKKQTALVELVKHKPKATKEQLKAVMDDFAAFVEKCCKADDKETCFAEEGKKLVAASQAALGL

[9] = Permeability of the compound by artificial membrane permeability assay; type: ADME; details: PAMPA; read-out: permeability
HepG2 [10] = test: Cytotoxicity against human HepG2 cells assessed as compound concentration causing changes in membrane permeability by Cell Health assay; type: cell-based
HepG2 [11] = test: Cytotoxicity against human HepG2 cells assessed as compound concentration causing changes in nuclear morphology by Cell Health assay; type: cell-based
in vitro = details: human, HepG2 cells
Description: Selectivity index, ratio of TC50 for human HepG2 cells to MIC for Mycobacterium tuberculosis

SMILES | logD ([1]; read-out: logD) | IC50 [2] [µM] | solubility at 4 h [3] [µg/mL] | solubility kinetic at 1 h [4] [µM] | IC50 [5] [µM] | CC50 at 48 h [6] [µM] | Activity (HepG2 [7]) [µM] | MIC [8] [µM] | Activity (Albumin) [%] | Papp [9] [×10⁻⁶ cm/s] | Activity (HepG2 [10]) [µM] | Activity (HepG2 [11]) [µM] | selectivity ratio (in vitro) | logD [1]
Cc1c(CN2CCOCC2)cc(-c2ccc(C(C)C)cc2)n1-c1ccc(F)cc1 | 8.1 | 10 | 5 (≈ 12.7 µM) | < 1 | 0.1 | 40 | > 40 | 0.12 (≈ 0.0471 µg/mL) | 98.37 | 24 | > 40 | > 40 | 333 | 
COc1ccc(-c2cc(CN3CCOCC3)c(C)n2C(C)C)cc1 |  |  |  |  |  |  |  | 2.5 (≈ 0.821 µg/mL) |  |  |  |  |  | 
Cc1c(CN2CCOCC2)cc(-c2ccc(C(C)C)cc2)n1C1CCCC(O)C1 (stereo not given) |  |  |  |  |  | 20 |  | > 40 |  |  |  |  |  | 
Cc1c(CN2CCOCC2)cc(-c2ccc(C(C)C)cc2)n1Cc1ccc(F)cc1 | 8.2 | 5 |  | 11 (≈ 4.47 µg/mL) | 0.16 | 20 |  | 0.08 (≈ 0.0325 µg/mL) | 98.47 | 30 |  |  | 250 | 
Cc1c(CN2CCOCC2)cc(-c2ccc(C(F)(F)F)cc2)n1C1CCC1 |  |  |  |  |  | 20 |  | 1.25 (≈ 0.473 µg/mL) |  |  |  |  | 67 | 
Cc1[nH]c(-c2ccc(C(C)C)cc2)cc1CN1CCOCC1 |  |  |  |  | > 10 | 1.6 |  | 12.5 (≈ 3.73 µg/mL) |  |  |  |  |  | 
Cc1c(CN2CCOCC2)cc(-c2ccc(C(C)C)cc2)n1CC(C)(C)O |  |  |  |  | 2.5 | 40 | 126 | 2.5 (≈ 0.926 µg/mL) |  |  | 100 | 50 |  | 
COCCCn1c(-c2ccc(C(C)C)cc2)cc(CN2CCOCC2)c1C |  |  |  |  | 1.25 |  | 50 | 1.3 (≈ 0.482 µg/mL) |  |  | 40 | 32 |  | 
CC(=O)Nc1ccc(-c2cc(CN3CCOCC3)c(C)n2-c2ccc(F)cc2)cc1 |  |  |  |  | 3.3 | 80 |  | 1.25 (≈ 0.509 µg/mL) |  |  |  |  | 40 | 
Cc1c(CN2CCOCC2)cc(-c2ccc(C(C)C)cc2)n1CC(C)C | 8.46 | 16 |  | 47 (≈ 16.7 µg/mL) | 0.08 | 20 |  | 0.2 (≈ 0.0709 µg/mL) | 97.12 | 43 |  |  | 100 | 
Cc1c(CN2CCOCC2)cc(-c2ccc(C(C)C)cc2)n1CCCC(=O)O |  |  |  |  |  | > 100 |  | > 40 |  |  |  |  |  | 
Cc1c(CN2CCOCC2)cc(-c2ccc(C(C)C)cc2)n1-c1ccc(C(=O)O)cc1 |  |  |  |  |  | > 100 |  | > 40 |  |  |  |  |  | 
Cc1c(CN2CCOCC2)cc(Cc2ccccc2)n1-c1ccc(F)cc1 |  |  |  |  |  | 10 |  | > 5 |  |  |  |  |  | 
Cc1cc(CN2CCOCC2)c(C)n1-c1ccc(F)cc1 |  |  |  |  | > 10 | > 100 |  | > 5 |  |  |  |  |  | 
Cc1c(CN2CCOCC2)cc(-c2ccc(C(C)C)cc2)n1[C@@H]1CCCNC1 |  |  |  |  |  | 16 |  | > 80 |  |  |  |  |  | 
Cc1c(CN2CCOCC2)cc(-c2ccc(C(C)C)cc2)n1CC1CCCO1 (stereo not given) |  |  |  |  | 5 | 32 | 63 | 5 (≈ 1.91 µg/mL) |  |  | 50 | 40 |  | 
Cc1c(CN2CCOCC2)cc(-c2ccc(C(C)C)cc2)n1C1CCCCC1 |  | 50 |  | < 1 | 0.63 | > 100 | > 200 | 0.3 (≈ 0.114 µg/mL) | 98.1 | 27 | > 200 | > 200 | > 267 | 9.13
Cc1c(CN2CCOCC2)cc(-c2ccc(C(C)C)cc2)n1C |  |  |  |  | 1.25 | 16 | 50 | 1.25 (≈ 0.391 µg/mL) |  |  | 40 | 40 | 13 | 
Cc1c(CN2CCOCC2)cc(-c2ccc(C(C)C)cc2)n1C1CCOCC1 |  |  |  |  |  | 50.1 |  | 2.5 (≈ 0.956 µg/mL) |  |  |  |  |  | 
Cc1cc(Cl)ccc1-c1cc(CN2CCOCC2)c(C)n1-c1ccc(F)cc1 |  |  |  |  | > 10 | > 100 | > 200 | 5 (≈ 1.99 µg/mL) |  |  | > 200 | > 200 |  | 
Cc1c(CN2CCOCC2)cc(-c2ccc(Cl)cn2)n1-c1ccc(F)cc1 |  |  |  |  | > 10 | > 100 | > 200 | > 125 |  |  | > 200 | > 200 |  | 
